From PMC10994559 (PLOS Neglected Tropical Diseases, 2024)
Where two headings read alike, the source gives them in different places.

What was measured:
E. histolytica = E. histolytica viability, ATP luminescence (Cell titer glo); type: cell-based, Entamoeba histolytica; settings: Entamoeba histolytica, 48 h; for viability at 2.5 µM: read-out: Residual viability, E.histolytica (2.5 µM); for viability at 25 µM: read-out: Residual viability, E.histolytica (25 µM)
Method: Entamoeba histolytica (strain B2-5) was passaged in TY-1 medium (Trypticase peptone BBL, Yeast extract BBL, glucose, NaCl, K2HPO4, KH2PO4, cysteine, ascorbic acid, ammonium iron citrate, adult bovine serum, Diamond tween 80, penicillin G, amikacin (pH:6.8)) and kept in 37°C incubator in completely filled tubes with closed lid.
Viability of E. histolytica was assayed via a luminescence assay based on ATP quantification in the live cells. Briefly, 2.5x10^4 cell/ml were exposed to 25 μM of compounds in 96 well plates (non-transparent, tissue culture treated, flat bottom; SPL Life Sciences) in triplicate for 48h. Plates were incubated in sealed anaerobic bags (Oxoid AGS) together with an Anaerogen compact bag (Thermo Scientific) and anaerobic indicator (Thermo Scientific) at 37°C. Then, Cell titer glo reagent (Promega) was added to the reaction (1:5) according to manufacturers’ instruction. After 15 min of orbital shaking, followed by 10 min incubation at RT, ATP-bioluminescence was quantified at RT using a Synergy H1 plate reader (Synergy H1, BioTek). Metronidazole was included as control drug in all the assays for E. histolytica. Test compounds indicating significant growth reduction in the primary screen were subjected to potency determination. These secondary screens were essentially carried out as detailed above, but with a 9 to 16-point concentration range of the test compounds spanning 0.01–100 μM.

L. major promastigotes = test: L. major promastigote viability, resazurin reduction; type: cell-based, Leishmania major; settings: Leishmania major; 25 µM, 72 h, vs non-treated cells; read-out: Residual viability, L.major promastigote (25 µM)
Source text: (§1) The infectivity of the parasites was boosted by passaging in Balb/c mice and culturing the infected lymph nodes after six weeks. L. infantum (MHOM / BR / 76 / M4192) parasite was passaged in the same media formulation with 0.5% urine.

[1] = system: L. infantum promastigotes; test: L. infantum promastigote viability, resazurin reduction; type: cell-based, Leishmania infantum; settings: Leishmania infantum, 72 h, vs non-treated cells
Source text: as §1

[2] = system: L. major axenic amastigotes; test: L. major axenic amastigote viability, resazurin reduction; settings: Leishmania major
Method: L. major LV561(MHOM/IL/67/LRC-L137 JERICHO II) amastigotes were passaged in Grace insect medium supplemented with NaHCO3, 0.1% amikin and 20% of FCS (pH: 5.4) and kept at 33°C.
Exponential growth phase promastigotes of L. major or L. infantum and axenic amastigotes (L. major) were harvested and seeded in 384 well plates (white, non-transparent, tissue culture treated, flat bottom; Corning) (0.5x10^5 cells per well). Compounds were pre-dispensed into the plate with an Echo 650 acoustic dispenser (Beckman Coulter). After 72h incubation, resazurin was added (1:10 v/v) from a […] stock in PBS, followed by incubation for six hours. Then, fluorescence intensity was measured using a microplate reader (Synergy H1, BioTek) with excitation filter: 550 nm and emission filter: 590 nm. Efficient compounds were selected for the next round of viability assay with 2.5 μM concentrations of the compounds. […] All experiments were performed with AmB as a positive control drug in parallel.
Axenic amastigotes, the relevant form that persists in the infected host, were generated in the lab through established procedures, employing harsh pH (pH 5) and high temperature (33°C) conditions.

[3] = system: intracellular L. infantum amastigotes; test: Parasite rescue assay (intramacrophage, J774 infected with L. infantum); type: cell-based, Leishmania infantum; settings: Leishmania infantum, J774, rescue assay in J774, 25 µM; read-out: Residual viability, intracellular L. infantum amastigote (25 µM)
Method: After 24 h incubation, cells were washed five times with serum free RPMI and exposed to a serial dilution of test compounds, prepared using an acoustic dispenser (Echo 650, Labcyte), in RPMI (2% FCS). After two days, cells were washed thrice, and 20 μl of 0.05% SDS in RPMI was added upon removal of the supernatant. Upon incubation under orbital shaking for 30 seconds, cell lysis was stopped by addition of 180 μl M199 medium supplemented with 10% FCS. […] Then, fluorescence intensity of the samples was measured with a microplate reader (Synergy H1, BioTek) with λEx: 550 nm and λEm: 590 nm. Percent of viability was calculated according to cell only and media controls.
J774A.1 cells (J774) were infected with L. infantum metacyclic promastigotes. […] After controlled lysis of the infected macrophages, the released parasites were quantified using a resazurin based viability assay.

T. brucei brucei BSF = test: T. brucei BSF viability, resazurin reduction; type: cell-based, Trypanosoma brucei brucei; settings: Trypanosoma brucei, 72 h, BSF, 72 h
Method: T. brucei brucei (strain 427 Lister) blood stream form (BSF) parasites were passaged in complete HMI-9 media supplemented with 10% FCS, Pen-Strep (0.1%) and 2-mercaptoethanol (0.014 v/v) and kept in a 37° C CO2 incubator in filter-cap flasks.
(§2) Viability of T. brucei brucei BSF and T. cruzi trypomastigotes was assayed with fluorescence resazurin reduction assay, essentially as described above. […] Next, selected compounds were tested at 2.5 μM concentration, and promising compounds subjected to 18 concentrations dose response analyses. AN3057 and AmB were used as a control drug in T. brucei and T. cruzi, respectively.

T. cruzi trypomastigotes = test: T. cruzi viability, resazurin reduction; type: cell-based, Trypanosoma cruzi; settings: Trypanosoma cruzi, 72 h, 72 h
Method: T. cruzi (Y strain) trypomastigotes were passaged in liver infusion broth media supplemented with tryptose, NaCl, Na2HPO4, KCl, glucose, hemin, Pen-Strep (1%), 10% FCS (pH: 7.2) and kept at 28°C.
as §2

[4] = Cytotoxicity assay J774, resazurin reduction; type: cell-based, murine; settings: mouse, J774 macrophage cells, cytotoxicity, 72 h
Method: Mammalian cell lines (J774 and HepG2) were passaged in RPMI media supplemented with MEM, Pen-Strep (1%) and 10% FCS. Cultures were kept at 37°C incubator with 5% CO2 in filter-cap flasks.
Murine macrophage cells (J774) and human hepatocyte carcinoma HepG2 cells were seeded at 0.5x10^5 cell/well in 384 well plates in triplicate, exposed to serial dilution of compounds, dispensed using an Echo 650 acoustic dispenser (Labcyte). After incubation for 72 h at 37°C, 5% CO2, cell viability was determined using fluorescence resazurin reduction assay (λEx: 550 nm; λEm: 590 nm).

T. brucei BSF proteome = system: T. brucei BSF proteome; parameters: method as in PMID: 32354742; settings: ref PMID: 32354742, cited from earlier work

## Cc1ncc([N+](=O)[O-])n1CCO [Metronidazole, reference compound]
E. histolytica
  viability at 2.5 µM: 71.6 ± 32.3%
  viability at 25 µM: -7.82 ± 3.48%
E. histolytica; 9 to 16-point dose response
  EC50: 2.9 ± 1.8 µM

## CC[C@@H](C)[C@H](c1nc2ccccc2n1Cc1cn(-c2c(F)c(F)c(F)c(F)c2F)nn1)N1C(=O)c2ccccc2C1=O [PHT-41]
L. major promastigotes
  viability at 25 µM: 21.5 ± 1.47%
[1]; 2.5 µM, read-out: Residual viability, L. infantum promastigote (2.5 µM)
  viability at 2.5 µM: 54.6 ± 1.29%
[1]; 25 µM, ± SD, triplicate, read-out: Residual viability, L. infantum promastigote (25 µM)
  viability at 25 µM: 12.4 ± 1.22%
[2]; 72 h, read-out: Residual viability, L.major amastigote (2.5 µM)
  viability at 2.5 µM: 64.8 ± 5.36%
[2]; 72 h, read-out: Residual viability, L.major amastigote (25 µM)
  viability at 25 µM: 4.6%
[2]; read-out: EC50 L. major axenic amastigote
  EC50: 3.6 ± 2.1 µM
[3]
  viability at 25 µM: 81.4 ± 2.86%
T. brucei brucei BSF; 2.5 µM, read-out: Residual viability, T.brucei (2.5 µM)
  viability at 2.5 µM: 57.4 ± 11%
T. brucei brucei BSF; 25 µM, read-out: Residual viability, T.brucei (25 µM)
  viability at 25 µM: 3.15 ± 3%
T. cruzi trypomastigotes; 2.5 µM, read-out: Residual viability, T.cruzi (2.5 µM)
  viability at 2.5 µM: 64.5 ± 2.58%
T. cruzi trypomastigotes; read-out: Residual viability, T.cruzi (25 µM), 25 µM, 72 h
  viability at 25 µM: 22.7 ± 0.63%
E. histolytica; 2.5 µM
  viability at 2.5 µM: 110 ± 24.2%
E. histolytica; 25 µM
  viability at 25 µM: 53.3 ± 1.97%
[4]; 2.5 µM, read-out: Residual viability, J774 (2.5 µM)
  viability at 72 h, 2.5 µM: 96.1 ± 3.84%
[4]; 25 µM, read-out: Residual viability, J774 (25 µM)
  viability at 72 h, 25 µM: 86.1 ± 5.26%

## Cc1ccc(C(=O)Nc2ccc(S(=O)(=O)O)c3cc(S(=O)(=O)O)cc(S(=O)(=O)O)c23)cc1NC(=O)c1cccc(NC(=O)Nc2cccc(C(=O)Nc3cc(C(=O)Nc4ccc(S(=O)(=O)O)c5cc(S(=O)(=O)O)cc(S(=O)(=O)O)c45)ccc3C)c2)c1 [suramin]
T. brucei BSF proteome; protein 2-oxoglutarate dehydrogenase E1 component, Tb927.11.1450
  suramin ratio (protein abundance): 2.73
T. brucei BSF proteome; protein 2-oxoglutarate dehydrogenase E1 component, Tb927.11.9980
  suramin ratio (protein abundance): 3.16
T. brucei BSF proteome; protein ACS1, Tb927.7.6180
  suramin ratio (protein abundance): 0.80
T. brucei BSF proteome; protein Aconitase, Tb927.10.14000
  suramin ratio (protein abundance): 2.76
T. brucei BSF proteome; protein CIF1 (TOEFAZ1), Tb927.11.15800
  suramin ratio (protein abundance): 0.78
T. brucei BSF proteome; protein CIF3, Tb927.10.13100
  suramin ratio (protein abundance): 1.00
T. brucei BSF proteome; protein CIF4, Tb927.10.8240
  suramin ratio (protein abundance): 0.84
T. brucei BSF proteome; protein F1 alpha, Tb927.7.7430, Tb927.7.7420
  suramin ratio (protein abundance): 1.62
T. brucei BSF proteome; protein F1 beta, Tb927.3.1380
  suramin ratio (protein abundance): 1.57
T. brucei BSF proteome; protein F1 gamma, Tb927.10.180
  suramin ratio (protein abundance): 1.62
T. brucei BSF proteome; protein F1 p18, Tb927.5.1710
  suramin ratio (protein abundance): 0.87
T. brucei BSF proteome; protein FPRC, Tb927.10.6360
  suramin ratio (protein abundance): 1.14
T. brucei BSF proteome; protein Fo 8, Tb927.4.3450
  suramin ratio (protein abundance): 1.62
T. brucei BSF proteome; protein Fo ATBTB1, Tb927.10.520
  suramin ratio (protein abundance): 1.20
T. brucei BSF proteome; protein Fo ATBTB3, Tb927.11.6250
  suramin ratio (protein abundance): 1.77
T. brucei BSF proteome; protein Fo ATBTB4, Tb927.10.9830
  suramin ratio (protein abundance): 0.88
T. brucei BSF proteome; protein Fo ATBTB12, Tb927.5.3090
  suramin ratio (protein abundance): 1.92
T. brucei BSF proteome; protein Fo OSCP, Tb927.10.8030
  suramin ratio (protein abundance): 1.11
T. brucei BSF proteome; protein Fo d, Tb927.5.2930
  suramin ratio (protein abundance): 1.32
T. brucei BSF proteome; protein Fo e, Tb927.11.600
  suramin ratio (protein abundance): 1.21
T. brucei BSF proteome; protein Fo f, Tb927.3.1690
  suramin ratio (protein abundance): 1.06
T. brucei BSF proteome; protein Fo i/j, Tb927.3.2880
  suramin ratio (protein abundance): 1.67
T. brucei BSF proteome; protein Fo k, Tb927.7.840
  suramin ratio (protein abundance): 1.07
T. brucei BSF proteome; protein Glutamate dehydrogenase, Tb927.9.5900
  suramin ratio (protein abundance): 3.30
T. brucei BSF proteome; protein PIP39, Tb927.9.6090
  suramin ratio (protein abundance): 2.83
T. brucei BSF proteome; protein PPDK, Tb927.11.6280
  suramin ratio (protein abundance): 2.94
T. brucei BSF proteome; protein Proline dehydrogenase, Tb927.7.210
  suramin ratio (protein abundance): 4.55
T. brucei BSF proteome; protein SAXO, Tb927.8.6240
  suramin ratio (protein abundance): 0.98
T. brucei BSF proteome; protein Tb927.1.4280
  suramin ratio (protein abundance): 0.91
T. brucei BSF proteome; protein isocitrate dehydrogenase, Tb927.8.3690
  suramin ratio (protein abundance): 1.96
T. brucei BSF proteome; protein mitochondrial malate dehydrogenase, Tb927.10.2560
  suramin ratio (protein abundance): 1.99
T. brucei BSF proteome; protein succinyl-CoA ligase beta-chain, Tb927.10.7410
  suramin ratio (protein abundance): 1.97
T. brucei BSF proteome; protein succinyl-CoA synthetase alpha subunit, Tb927.3.2230
  suramin ratio (protein abundance): 1.94
